From patent US20250034116A1, “1,4-DIHETEROCYCLIC SUBSTITUTED AROMATIC RING OR AROMATIC HETEROCYCLIC COMPOUND AND USE THEREOF” (BeBetter Med Inc., priority 2022, published 2025)

Tests used:
[1] = tested on: CYP enzymes in human liver microsomes (HLM); assay: Inhibition of 20-HETE production in human liver microsomes (HLM); assay type: biochemical
Description: (§1) Experimental principle: The inhibitory activity of 20-HETE production is evaluated by testing the inhibitory effects of the compound on human liver microsomes (HLM), rat liver microsomes (RLM), mouse liver microsomes (MLM), or […] CYP4 subtype enzymes (CYP4F2). This assay employs HLM, RLM, or MLM along with recombinant CYP4F2 (rCYP4F2) and recombinant CYP4A11 (rCYP4A11), which are […] CYP4 subtype enzymes, to detect the effects of the test compound at different concentrations on the metabolic rate of enzyme-specific substrates, to determine the inhibitory effects of the test compound on CYP enzymes in HLM, RLM, or MLM.
(§2) Experimental methods: Dissolve the test compound in DMSO, and subsequently dilute it with an acetonitrile and DMSO mixture (3:1). Add 2 μl of varying concentrations of the test compound and 100 μl of potassium phosphate buffer containing either liver microsomes or recombinant enzymes to a 96-well plate. After mixing well, transfer 30 μl to another well (in duplicate), add 15 μl of 400 μM substrate solution, and mix well again. Preheat at 37° C. for 10 minutes, and then add 15 μl of 6 mM NADPH and incubate at 37° C. for 25 minutes. After 25 minutes, add 160 μl of acetonitrile solution (containing 0.1 μg/ml internal standard) to stop the reaction. Mix well, centrifuge at 3500 g for 15 minutes, and then analyze the supernatant using LC-MS/MS.
(§3) Plot the compound concentration on the x-axis and the inhibition rate on the y-axis to draw the curve. Use GraphPad Prism 5 software to fit the curve and calculate the IC50. The formula is Y=Bottom+(Top−Bottom)/(1+10^((Log IC50−X)×HillSlope)). X represents the logarithmic concentration of the inhibitor, and Y represents the relative enzyme activity at a given inhibitor concentration (relative to the condition without the inhibitor).
(§4) Calculate the inhibition percentages at concentrations of 1000 nM, 500 nM, or 100 nM as well as the half-maximal inhibitory concentration (IC50) of the test compound from the above experiment.

[2] = tested on: CYP enzymes in rat liver microsomes (RLM); assay: Inhibition of 20-HETE production in rat liver microsomes (RLM); assay type: biochemical
Description: as §1, §2, §3, §4

| Compound | HLM (% inh @ 500 nM) [1] | RLM (% inh @ 500 nM) [2] | further results |
| --- | --- | --- | --- |
| O=S(=O)(c1ccc(F)cc1)N1CCN(c2ccc(-c3cn[nH]c3)cc2F)CC1 [Compound 134, 1-(2-fluoro-4-(1H-pyrazol-4-yl)phenyl)-4-((4-fluorophenyl)sulfonyl)piperazine] |  |  | IC50 [1]: 21.9 nM |
| C[C@H]1CN(C(=O)N2CCCC2)CCN1c1ccc(-c2cn[nH]c2)c(F)c1F [Compound 102, (S)-(4-(2,3-difluoro-4-(1H-pyrazol-4-yl)phenyl)-3-methylpiperazin-1-yl)(pyrrolidin-1-yl) methanone] | 84.23% | 76.10% |  |
| O=C(C1CCCC1)N1CCC(c2c(F)cc(-c3cn[nH]c3)cc2F)CC1 [Compound 99, cyclopentyl(4-(2,6-difluoro-4-(1H-pyrazol-4-yl)phenyl)piperidin-1-yl) methanone] | 96.13% | 74.05% |  |
| Clc1ccc(CC2CCN(c3ccc(-c4cn[nH]c4)cc3)CC2)cc1 [Compound 41, 1-(4-(1H-pyrazol-4-yl)phenyl)-4-(4-chlorobenzyl)piperidine] | 57.77% | 15.76% |  |
| O=C1CCCN1CC1CCN(c2ccc(-c3cc[nH]n3)c(F)c2F)CC1 [Compound 77, 1-((1-(2,3-difluoro-4-(1H-pyrazol-3-yl)phenyl)piperidin-4-yl)methyl)pyrrolidin-2-one] | 86.12% | 62.98% |  |
| O=C1CCCN1C1CCN(c2ccc(-c3cn[nH]c3)cc2)CC1 [Compound 73, 1-(1-(4-(1H-pyrazol-4-yl)phenyl)piperidin-4-yl) pyrrolidin-2-one] | 65.78% | 29.56% |  |
| O=C(C1CCN(c2ccc(-c3cn[nH]c3)cc2)CC1)N1CCOCC1 [Compound 50, (1-(4-(1H-pyrazol-4-yl)phenyl)piperidin-4-yl)(morpholinyl) methanone] | 57.59% | 14.48% |  |
| O=C(C1CCCCC1O)N1CCC(c2ccc(-c3cn[nH]c3)cc2F)CC1 (single isomer, unassigned) [Compound 149a, (4-(2-fluoro-4-(1H-pyrazol-4-yl)phenyl)piperidin-1-yl)(2-hydroxycyclohexyl) methanone] |  |  | HLM (% inh @ 100 nM) [1]: 84.74% |
| O=C1CCCN1CC1CCN(c2ccc(-c3cnoc3)c(F)c2F)CC1 [Compound 37, 1-((1-(2,3-difluoro-4-(isoxazol-4-yl)phenyl)piperidin-4-yl)methyl)pyrrolidin-2-one] | 82.89% | 59.01% |  |
| O=C(NCC1CCCC1)N1CCN(c2ccc(-c3cn[nH]c3)c(F)c2F)CC1 [Compound 92, N-(cyclopentylmethyl)-4-(2,3-difluoro-4-(1H-pyrazol-4-yl)phenyl)piperazine-1-carboxamide] | 94.83% | 77.48% | IC50 [1]: 26.4 nM |
| c1cc(N2CCC(CN3CCCC3)CC2)ccc1-c1cn[nH]c1 [Compound 40, 1-(4-(1H-pyrazol-4-yl)phenyl)-4-(pyrrolidin-1-ylmethyl)piperidine] | 52.40% | 26.22% |  |
| O=C(Nc1ccc(F)cc1)C1CCN(c2ccc(-c3cn[nH]c3)cc2)CC1 [Compound 61, 1-(4-(1H-pyrazol-4-yl)phenyl)-N-(4-fluorophenyl)piperidine-4-carboxamide] | 85.27% |  | IC50 [1]: 17.6 nM; IC50 [2]: 60.5 nM |
| O=C1c2ccccc2CCN1CC1CCN(c2ccc(-c3cn[nH]c3)cc2)CC1 [Compound 42, 2-((1-(4-(1H-pyrazol-4-yl)phenyl)piperidin-4-yl)methyl)-3,4-dihydroisoquinolin-1(2H)-one] |  | 25.96% | IC50 [1]: 32.8 nM; IC50 [2]: 605 nM |
| O=C1CCCN1CC1C2CN(c3ccc(-c4cn[nH]c4)cc3)CC12 (stereo not drawn) [Compound 125, 1-((3-(4-(1H-pyrazol-4-yl)phenyl)-3-azabicyclo[3.1.0]hexan-6-yl)methyl)pyrrolidin-2-one] | 94.93% | 34.82% |  |
| CCCCCC1CCC(C(=O)N2CCC(c3ccc(-c4cn[nH]c4)c(F)c3F)CC2)CC1 (stereo not drawn) [Compound 112, (4-(2,3-difluoro-4-(1H-pyrazol-4-yl)phenyl)piperidin-1-yl)((1s,4r)-4-pentylcyclohexyl) methanone] | 70.73% | 71.58% |  |
| CCCCCCC(=O)NCC1CCN(c2ccc(-c3cn[nH]c3)cc2)CC1 [Compound 44, N-((1-(4-(1H-pyrazol-4-yl)phenyl)piperidin-4-yl)methyl) heptylamide] | 85.05% |  | IC50 [1]: 25.2 nM; IC50 [2]: 33.8 nM |

| Compound | HLM (% inh @ 500 nM) [1] | RLM (% inh @ 500 nM) [2] | further results |
| --- | --- | --- | --- |
| COc1cc(-c2cn[nH]c2)ccc1N1CCC(CN2CCCC2=O)CC1 [Compound 14, 1-((1-(2-methoxy-4-(1H-pyrazol-4-yl)phenyl)piperidin-4-yl)methyl)pyrrolidin-2-one] | 41.24% |  |  |
| C#CCCCCCC(=O)NCC1CCN(c2ccc(-c3cn[nH]c3)cc2)CC1 [Compound 114, N-((1-(4-(1H-pyrazol-4-yl)phenyl)piperidin-4-yl)methyl)oct-7-ynamide] | 85.59% | 54.89% |  |
| O=C1CCCN1CC1CCN(c2ncc(-c3cn[nH]c3)cn2)CC1 [Compound 23, 1-((1-(5-(1H-pyrazol-4-yl)pyrimidin-2-yl)piperidin-4-yl)methyl)pyrrolidine-2-one] | −24.84% |  |  |
| O=C1CCCN1Cc1ccc2c(c1)CN(c1ccc(-c3cn[nH]c3)cc1)C2 [Compound 126, 1-(2-(4-(1H-pyrazol-4-yl)phenyl)isoindolin-5-ylmethyl)pyrrolidin-2-one] | 64.15% |  |  |
| O=C(C1CCN(c2ccc(-c3cn[nH]c3)cc2)CC1)N1CCNCC1 [Compound 51, (1-(4-(1H-pyrazol-4-yl)phenyl)piperidin-4-yl)(piperazin-1-yl) methanone] | 30.17% |  |  |
| NC(=O)c1cc(-c2cn[nH]c2)ccc1N1CCC(CN2CCCC2=O)CC1 [Compound 16, 2-(4-((2-oxopyrrolidin-1-yl)methyl)piperidin-1-yl)-5-(1H-pyrazol-4-yl)benzamide] | 41.22% |  |  |
| O=C(N1CCN(c2ccc(-c3cn[nH]c3)cc2F)CC1)N1CC2CCCC2C1 (stereo not drawn) [Compound 133, (4-(2-fluoro-4-(1H-pyrazol-4-yl)phenyl)piperazin-1-yl)(hexahydrocyclopenta[c]pyrrol-2 (1H)-yl) methanone] |  |  | HLM (% inh @ 100 nM) [1]: 87.90% |
| CN(C)c1cc(-c2cn[nH]c2)ccc1N1CCC(CN2CCCC2=O)CC1 [Compound 20, 1-((1-(2-(dimethylamino)-4-(1H-pyrazol-4-yl)phenyl)piperidin-4-yl)methyl)pyrrolidin-2-one] | 36.16% |  |  |
| CC(C)(O)CC(=O)N1CCC(c2ccc(-c3cn[nH]c3)cc2F)CC1 [Compound 151, 1-(4-(2-fluoro-4-(1H-pyrazol-4-yl)phenyl)piperidin-1-yl)-3-hydroxy-3-methylbutan-1-one] |  |  | HLM (% inh @ 100 nM) [1]: 82.28% |
| O=C1C2CCCC2CN1CC1CCN(c2ccc(-c3cn[nH]c3)cc2F)CC1 (stereo not drawn) [Compound 160, 2-((1-(2-fluoro-4-(1H-pyrazol-4-yl)phenyl)piperidin-4-yl)methyl) hexahydrocyclopenta[c]pyrrol-1(2H)-one] |  |  | IC50 [1]: 23.2 nM |
| O=C1CCCN1CC1CCN(c2ccc(-c3cn[nH]c3)cn2)CC1 [Compound 21, 1-((1-(5-(1H-pyrazol-4-yl)pyridin-2-yl)piperidin-4-yl)methyl)pyrrolidin-2-one] | 40.01% |  |  |
| O=C(C1CCCC(O)C1)N1CCC(c2ccc(-c3cn[nH]c3)cc2F)CC1 (stereo not drawn) [Compound 148, (4-(2-fluoro-4-(1H-pyrazol-4-yl)phenyl)piperidin-1-yl)(3-hydroxycyclohexyl) methanone] |  |  | HLM (% inh @ 100 nM) [1]: 85.60% |
| O=C(C1CCN(c2ccc(-c3cn[nH]c3)cc2)CC1)N1Cc2cccnc2C1 [Compound 157, (1-(4-(1H-pyrazol-4-yl)phenyl)piperidin-4-yl)(5,7-dihydro-6H-pyrrolo[3,4-b]pyridin-6-yl) methanone] |  |  | IC50 [1]: 17.6 nM |
| O=C(N1CCC(c2ccc(-c3cn[nH]c3)cc2)CC1)C1(O)CCCCC1 [Compound 139, (4-(4-(1H-pyrazol-4-yl)phenyl)piperidin-1-yl)(1-hydroxycyclohexyl) methanone] |  |  | HLM (% inh @ 100 nM) [1]: 88.13% |
| O=C(C1CCN(c2ccc(-c3cn[nH]c3)cc2F)CC1)N1Cc2ccccc2C1 [Compound 156, (1-(2-fluoro-4-(1H-pyrazol-4-yl)phenyl)piperidin-4-yl)(isoindolin-2-yl) methanone] |  |  | IC50 [1]: 26.2 nM |
| N#Cc1ccc2c(c1)CN(C(=O)C1CCN(c3ccc(-c4cn[nH]c4)cc3)CC1)C2 [Compound 158, 2-(1-(4-(1H-pyrazol-4-yl)phenyl)piperidine-4-carbonyl) isoindoline-5-carbonitrile] |  |  | IC50 [1]: 11.7 nM |
